Results as given in publication PMC10176470, “Engaging a Non-catalytic Cysteine Residue Drives Potent and Selective Inhibition of Caspase-6” (Journal of the American Chemical Society, 2023).

Experiments:
Test in all cases: SILAC proteomics / in-gel fluorescence, competition of probe 13-t labeling by 3a
[1] = target: T1, proteins of HEK293T cells transiently overexpressing caspase-6 (Homo sapiens, UniProt P04075); details: Comp; protein ALDOA P04075
T1 sequence (P04075 1-364): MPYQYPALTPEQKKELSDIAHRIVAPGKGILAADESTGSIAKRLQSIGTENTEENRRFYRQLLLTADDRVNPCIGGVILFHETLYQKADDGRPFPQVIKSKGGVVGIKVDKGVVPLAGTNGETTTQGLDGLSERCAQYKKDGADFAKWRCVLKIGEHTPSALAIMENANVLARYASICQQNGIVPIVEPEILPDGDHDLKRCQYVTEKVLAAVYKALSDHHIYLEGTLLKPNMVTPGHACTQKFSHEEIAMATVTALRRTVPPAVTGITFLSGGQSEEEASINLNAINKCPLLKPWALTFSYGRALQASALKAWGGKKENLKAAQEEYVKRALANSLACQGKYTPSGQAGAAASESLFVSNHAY

[2] = target: proteins of HEK293T cells transiently overexpressing caspase-6 (Homo sapiens, UniProt P05388); details: Comp; protein RPLP0 P05388
[3] = target: proteins of HEK293T cells transiently overexpressing caspase-6 (Homo sapiens, UniProt P07814); details: Comp; protein EPRS P07814
proteins of HEK293T cells transiently overexpressing caspase-6 (Homo sapiens, UniProt P07814), sequence (P07814 whole entry): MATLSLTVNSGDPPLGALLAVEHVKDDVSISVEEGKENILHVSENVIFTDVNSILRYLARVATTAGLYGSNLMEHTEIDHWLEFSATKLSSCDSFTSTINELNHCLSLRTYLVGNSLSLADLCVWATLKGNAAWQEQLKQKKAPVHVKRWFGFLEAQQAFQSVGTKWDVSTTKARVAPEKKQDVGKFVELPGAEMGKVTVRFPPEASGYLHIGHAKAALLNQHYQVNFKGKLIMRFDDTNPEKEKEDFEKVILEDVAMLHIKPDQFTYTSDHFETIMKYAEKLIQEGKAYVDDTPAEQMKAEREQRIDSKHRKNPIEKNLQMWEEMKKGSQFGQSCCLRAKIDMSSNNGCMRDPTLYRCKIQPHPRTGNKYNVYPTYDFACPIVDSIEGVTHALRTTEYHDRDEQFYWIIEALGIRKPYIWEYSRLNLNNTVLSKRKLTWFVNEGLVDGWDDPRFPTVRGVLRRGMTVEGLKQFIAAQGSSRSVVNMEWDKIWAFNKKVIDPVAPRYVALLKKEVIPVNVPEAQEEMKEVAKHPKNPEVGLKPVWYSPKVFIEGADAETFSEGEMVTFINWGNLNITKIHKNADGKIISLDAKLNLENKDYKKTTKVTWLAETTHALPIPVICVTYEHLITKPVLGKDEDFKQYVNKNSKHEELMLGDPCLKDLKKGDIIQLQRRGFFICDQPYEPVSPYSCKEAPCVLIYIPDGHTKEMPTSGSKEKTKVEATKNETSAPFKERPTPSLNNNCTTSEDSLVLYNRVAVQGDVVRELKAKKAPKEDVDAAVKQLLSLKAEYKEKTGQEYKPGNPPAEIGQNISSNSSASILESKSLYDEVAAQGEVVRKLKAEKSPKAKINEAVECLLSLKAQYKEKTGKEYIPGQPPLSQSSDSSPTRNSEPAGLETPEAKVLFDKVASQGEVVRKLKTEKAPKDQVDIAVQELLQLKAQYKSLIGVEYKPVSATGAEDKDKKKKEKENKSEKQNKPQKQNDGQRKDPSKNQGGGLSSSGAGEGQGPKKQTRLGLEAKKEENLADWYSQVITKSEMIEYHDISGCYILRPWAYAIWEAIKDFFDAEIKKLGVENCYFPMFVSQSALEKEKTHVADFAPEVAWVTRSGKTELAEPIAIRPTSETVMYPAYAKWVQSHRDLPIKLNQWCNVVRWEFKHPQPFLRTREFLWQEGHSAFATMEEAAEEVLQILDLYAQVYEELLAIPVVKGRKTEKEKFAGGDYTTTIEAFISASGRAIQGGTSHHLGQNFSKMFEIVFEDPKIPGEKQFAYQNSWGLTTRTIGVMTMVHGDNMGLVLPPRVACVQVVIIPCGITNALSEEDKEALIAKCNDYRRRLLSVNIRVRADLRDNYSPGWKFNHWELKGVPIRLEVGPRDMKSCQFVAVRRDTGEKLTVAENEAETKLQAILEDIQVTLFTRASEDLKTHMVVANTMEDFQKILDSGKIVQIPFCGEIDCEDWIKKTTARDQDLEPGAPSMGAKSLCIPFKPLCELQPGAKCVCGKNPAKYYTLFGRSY

[4] = target: proteins of HEK293T cells transiently overexpressing caspase-6 (Homo sapiens, UniProt P12277); details: Comp; protein CKB P12277
proteins of HEK293T cells transiently overexpressing caspase-6 (Homo sapiens, UniProt P12277), sequence (P12277 whole entry): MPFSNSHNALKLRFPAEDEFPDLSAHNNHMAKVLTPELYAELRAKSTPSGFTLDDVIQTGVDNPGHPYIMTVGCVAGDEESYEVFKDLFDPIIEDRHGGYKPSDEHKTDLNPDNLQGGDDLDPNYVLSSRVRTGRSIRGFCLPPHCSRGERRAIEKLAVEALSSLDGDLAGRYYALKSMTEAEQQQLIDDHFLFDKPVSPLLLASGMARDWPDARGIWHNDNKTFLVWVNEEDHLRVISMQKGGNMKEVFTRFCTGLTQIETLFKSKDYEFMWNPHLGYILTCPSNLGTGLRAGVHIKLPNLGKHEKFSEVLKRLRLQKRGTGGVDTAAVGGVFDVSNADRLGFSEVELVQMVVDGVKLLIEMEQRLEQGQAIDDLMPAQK

[5] = target: T2, proteins of HEK293T cells transiently overexpressing caspase-6 (Homo sapiens, UniProt P14324)
T2 sequence (P14324 1-419): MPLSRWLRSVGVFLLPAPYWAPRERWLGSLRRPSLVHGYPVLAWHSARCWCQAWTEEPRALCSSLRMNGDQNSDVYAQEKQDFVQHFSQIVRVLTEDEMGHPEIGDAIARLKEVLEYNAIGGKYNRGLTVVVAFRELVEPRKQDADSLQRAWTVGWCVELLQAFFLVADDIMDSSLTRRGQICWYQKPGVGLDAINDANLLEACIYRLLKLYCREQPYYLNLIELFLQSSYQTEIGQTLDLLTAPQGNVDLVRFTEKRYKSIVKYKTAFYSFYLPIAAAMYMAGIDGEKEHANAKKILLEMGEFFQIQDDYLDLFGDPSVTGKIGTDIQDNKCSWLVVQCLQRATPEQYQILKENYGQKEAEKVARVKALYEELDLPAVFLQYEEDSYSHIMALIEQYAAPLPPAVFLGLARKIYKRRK

[6] = target: proteins of HEK293T cells transiently overexpressing caspase-6 (Homo sapiens, UniProt P14625); details: Comp; protein HSP90B1 P14625
proteins of HEK293T cells transiently overexpressing caspase-6 (Homo sapiens, UniProt P14625), sequence (P14625 22-803): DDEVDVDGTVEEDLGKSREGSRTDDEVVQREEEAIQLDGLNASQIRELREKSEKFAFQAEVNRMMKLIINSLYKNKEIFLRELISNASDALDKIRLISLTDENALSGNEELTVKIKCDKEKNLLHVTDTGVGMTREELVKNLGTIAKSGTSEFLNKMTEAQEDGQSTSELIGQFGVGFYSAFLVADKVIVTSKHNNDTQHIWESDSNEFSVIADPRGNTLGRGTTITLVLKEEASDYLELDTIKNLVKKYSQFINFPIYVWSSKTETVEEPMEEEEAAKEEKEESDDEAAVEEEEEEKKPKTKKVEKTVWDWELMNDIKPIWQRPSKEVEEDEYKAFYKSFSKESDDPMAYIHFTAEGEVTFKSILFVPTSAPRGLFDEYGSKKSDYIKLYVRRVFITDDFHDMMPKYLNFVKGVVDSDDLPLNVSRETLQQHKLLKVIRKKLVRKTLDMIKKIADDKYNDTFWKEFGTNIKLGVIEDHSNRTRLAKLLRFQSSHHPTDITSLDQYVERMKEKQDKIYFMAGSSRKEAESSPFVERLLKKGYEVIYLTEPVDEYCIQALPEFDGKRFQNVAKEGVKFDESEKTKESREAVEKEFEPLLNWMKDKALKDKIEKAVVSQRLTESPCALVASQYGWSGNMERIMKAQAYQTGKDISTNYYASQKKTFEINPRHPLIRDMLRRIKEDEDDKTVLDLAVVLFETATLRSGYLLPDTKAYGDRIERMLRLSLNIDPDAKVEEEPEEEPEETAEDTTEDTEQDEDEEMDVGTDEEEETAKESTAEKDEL

[7] = target: proteins of HEK293T cells transiently overexpressing caspase-6 (Homo sapiens, UniProt P15880); details: Comp; protein RPS2 P15880
[8] = target: proteins of HEK293T cells transiently overexpressing caspase-6 (Homo sapiens, UniProt P26641); details: Comp; protein EEF1G P26641
proteins of HEK293T cells transiently overexpressing caspase-6 (Homo sapiens, UniProt P26641), sequence (P26641 whole entry): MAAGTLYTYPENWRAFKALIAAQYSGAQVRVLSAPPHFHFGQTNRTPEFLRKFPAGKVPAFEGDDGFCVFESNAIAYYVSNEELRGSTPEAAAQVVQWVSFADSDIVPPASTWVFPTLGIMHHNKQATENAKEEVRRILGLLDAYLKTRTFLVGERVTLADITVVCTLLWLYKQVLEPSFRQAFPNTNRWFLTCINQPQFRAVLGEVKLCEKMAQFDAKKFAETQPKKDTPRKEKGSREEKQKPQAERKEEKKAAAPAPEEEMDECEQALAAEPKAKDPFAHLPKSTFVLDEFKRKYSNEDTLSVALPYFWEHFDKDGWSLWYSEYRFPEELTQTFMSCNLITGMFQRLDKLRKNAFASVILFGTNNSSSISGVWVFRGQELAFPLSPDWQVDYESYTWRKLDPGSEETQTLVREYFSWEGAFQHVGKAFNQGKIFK

[9] = target: T3, proteins of HEK293T cells transiently overexpressing caspase-6 (Homo sapiens, UniProt P30084)
T3 sequence (P30084 28-290): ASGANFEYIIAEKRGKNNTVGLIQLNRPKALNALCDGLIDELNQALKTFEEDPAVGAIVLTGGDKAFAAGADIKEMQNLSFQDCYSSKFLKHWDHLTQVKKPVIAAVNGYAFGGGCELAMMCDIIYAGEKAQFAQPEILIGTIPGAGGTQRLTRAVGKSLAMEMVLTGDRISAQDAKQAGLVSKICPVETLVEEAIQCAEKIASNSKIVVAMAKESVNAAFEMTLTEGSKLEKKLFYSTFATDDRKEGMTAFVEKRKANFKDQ

[10] = target: proteins of HEK293T cells transiently overexpressing caspase-6 (Homo sapiens, UniProt P31939); details: Comp; protein ATIC P31939
proteins of HEK293T cells transiently overexpressing caspase-6 (Homo sapiens, UniProt P31939), sequence (P31939 whole entry): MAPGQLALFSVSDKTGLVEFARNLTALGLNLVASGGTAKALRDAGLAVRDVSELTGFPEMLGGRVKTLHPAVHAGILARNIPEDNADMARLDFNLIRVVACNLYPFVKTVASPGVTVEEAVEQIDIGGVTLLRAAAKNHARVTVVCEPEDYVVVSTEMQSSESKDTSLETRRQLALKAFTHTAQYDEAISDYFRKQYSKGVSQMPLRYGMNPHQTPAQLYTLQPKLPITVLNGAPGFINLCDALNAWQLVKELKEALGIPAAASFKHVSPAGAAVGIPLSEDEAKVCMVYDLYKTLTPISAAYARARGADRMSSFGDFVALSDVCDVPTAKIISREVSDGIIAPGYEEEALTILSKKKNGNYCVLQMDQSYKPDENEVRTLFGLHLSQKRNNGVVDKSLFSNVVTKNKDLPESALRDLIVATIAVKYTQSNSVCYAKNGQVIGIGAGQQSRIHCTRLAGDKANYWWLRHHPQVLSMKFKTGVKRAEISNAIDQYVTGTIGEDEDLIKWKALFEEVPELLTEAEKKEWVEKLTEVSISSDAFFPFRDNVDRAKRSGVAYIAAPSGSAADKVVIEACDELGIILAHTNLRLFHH

[11] = target: proteins of HEK293T cells transiently overexpressing caspase-6 (Homo sapiens, UniProt P36578); details: Comp; protein RPL4 P36578
[12] = target: proteins of HEK293T cells transiently overexpressing caspase-6 (Homo sapiens, UniProt P38646); details: Comp; protein HSPA9 P38646
proteins of HEK293T cells transiently overexpressing caspase-6 (Homo sapiens, UniProt P38646), sequence (P38646 47-679): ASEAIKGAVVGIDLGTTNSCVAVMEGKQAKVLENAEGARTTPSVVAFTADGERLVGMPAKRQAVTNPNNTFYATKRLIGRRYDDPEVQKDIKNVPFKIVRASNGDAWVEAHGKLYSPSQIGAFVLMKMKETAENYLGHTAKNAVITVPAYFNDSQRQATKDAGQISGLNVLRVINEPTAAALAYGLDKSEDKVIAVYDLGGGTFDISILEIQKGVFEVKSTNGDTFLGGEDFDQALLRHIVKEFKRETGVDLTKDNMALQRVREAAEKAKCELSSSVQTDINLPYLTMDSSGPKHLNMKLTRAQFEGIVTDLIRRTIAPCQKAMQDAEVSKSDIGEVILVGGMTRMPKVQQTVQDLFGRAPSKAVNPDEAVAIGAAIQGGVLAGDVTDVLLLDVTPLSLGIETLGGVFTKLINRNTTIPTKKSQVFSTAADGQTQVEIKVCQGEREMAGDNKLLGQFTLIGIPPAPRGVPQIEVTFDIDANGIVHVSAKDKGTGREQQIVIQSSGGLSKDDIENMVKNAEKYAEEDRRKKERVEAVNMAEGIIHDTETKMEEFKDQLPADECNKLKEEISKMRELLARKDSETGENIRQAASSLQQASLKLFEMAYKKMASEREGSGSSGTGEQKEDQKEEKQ

[13] = target: proteins of HEK293T cells transiently overexpressing caspase-6 (Homo sapiens, UniProt Q15029); details: Comp; protein EFTUD2 Q15029
[14] = target: proteins of HEK293T cells transiently overexpressing caspase-6 (Homo sapiens, UniProt Q9H307)
proteins of HEK293T cells transiently overexpressing caspase-6 (Homo sapiens, UniProt Q9H307), sequence (Q9H307 whole entry): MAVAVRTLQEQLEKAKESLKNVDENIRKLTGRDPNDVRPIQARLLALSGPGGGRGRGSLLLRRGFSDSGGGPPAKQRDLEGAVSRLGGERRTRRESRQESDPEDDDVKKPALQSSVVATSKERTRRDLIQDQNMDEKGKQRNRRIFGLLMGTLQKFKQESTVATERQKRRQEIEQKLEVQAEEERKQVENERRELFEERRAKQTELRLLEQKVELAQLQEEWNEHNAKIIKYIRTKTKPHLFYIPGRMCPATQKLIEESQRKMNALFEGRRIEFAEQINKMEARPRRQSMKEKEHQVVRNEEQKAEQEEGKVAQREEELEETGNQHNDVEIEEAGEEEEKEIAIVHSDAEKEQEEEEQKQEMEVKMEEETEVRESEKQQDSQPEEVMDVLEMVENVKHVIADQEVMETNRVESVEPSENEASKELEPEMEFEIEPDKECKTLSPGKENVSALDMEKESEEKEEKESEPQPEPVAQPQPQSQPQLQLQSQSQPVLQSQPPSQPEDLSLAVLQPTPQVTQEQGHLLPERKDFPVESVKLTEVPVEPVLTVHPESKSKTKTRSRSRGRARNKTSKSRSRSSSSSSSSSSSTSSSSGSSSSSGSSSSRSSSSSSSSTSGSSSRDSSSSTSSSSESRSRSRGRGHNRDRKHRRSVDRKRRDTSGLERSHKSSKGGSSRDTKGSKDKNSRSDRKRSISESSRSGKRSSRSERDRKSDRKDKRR

[15] = protein FDPS (P14324), Exp Comp, analysis C6, p 0.2500, 4 peptides
[16] = protein ECHS1 (P30084), Exp Comp, analysis C6, p 0.1250, 5 peptides
[17] = protein PNN (Q9H307), Exp Comp, analysis C6, p 0.5000, 2 peptides

Q: How did the enrich.exp.med [1] turn out when `C=CS(=O)(=O)N1C[C@H](C(=O)Nc2ccc(OC(F)(F)F)cc2)C[C@@H](c2ccccc2)C1` [3a] was run?
A: 0.6768

Q: What about the enrich.exp.med [2] of the same compound?
A: 0.8946

Q: What about the enrich.exp.med [3] of the same compound?
A: 0.7098

Q: And the enrich.exp.med [4]?
A: 0.6631

Q: What about the enrich.exp.med ([5]; Comp, protein FDPS P14324) of the same compound?
A: 1.087

Q: What about the enrich.exp.med.lin [5, 15] of the same compound?
A: 2.124

Q: And the enrich.exp.med.log2 [5, 15]?
A: 1.087

Q: And the enrich.exp.med [6]?
A: 0.7874

Q: What about the enrich.exp.med [7] of the same compound?
A: 0.7281

Q: And the enrich.exp.med [8]?
A: 0.7548

Q: And the enrich.exp.med ([9]; Comp, protein ECHS1 P30084)?
A: 2.261

Q: And the enrich.exp.med.lin [9, 16]?
A: 4.794

Q: What about the enrich.exp.med.log2 [9, 16] of the same compound?
A: 2.261

Q: And the enrich.exp.med [10]?
A: 0.7149

Q: What about the enrich.exp.med [11] of the same compound?
A: 0.5872

Q: And the enrich.exp.med [12]?
A: 0.6522

Q: What about the enrich.exp.med [13] of the same compound?
A: 0.5983

Q: And the enrich.exp.med ([14]; Comp, protein PNN Q9H307)?
A: 1.018

Q: And the enrich.exp.med.lin [14, 17]?
A: 2.025

Q: And the enrich.exp.med.log2 [14, 17]?
A: 1.018
